Results on 2 molecules are retold here after article PMC6278656, “Synthesis and Biological Evaluation of Phaeosphaeride A Derivatives as Antitumor Agents” (Molecules, 2018).

Each structure is given as a SMILES string.

Series [1] relates to human lung cancer A549 cells. Nature of the series: MTT cytotoxicity assay, A549. Type of series: cell-based. The conditions noted are these: 72 h, n = 3, ± SD, read-out: Adhesive Cell Cultures, IC50 A549. The protocol:
(§1) All newly synthesized PPA derivatives 1–8 were evaluated for their anti-proliferative activity against human breast cancer MCF-7, human prostate adenocarcinoma PC-3, human colorectal cancer HCT-116, human lung cancer A549, human chronic myelogenous leukemia K562, human acute monocytic leukemia THP-1, human multiple myeloma RPMI8226, human acute T-cell leukemia Jurkat, human multiple myeloma NCI-H929, and human embryonic fibroblasts HEF cell lines by MTT assays. All cells were incubated with different concentrations of PPA derivatives for 72 h, with etoposide and PPA used as reference compounds. The anticancer activity of the tested compounds was described as the concentration of drug inhibiting 50% cell growth IC50 (Table 1 and Table 2).
(§2) ^1H-NMR spectra were acquired on an AVANCE III 400 MHz NMR spectrometer (Bruker, Rheinstetten, Germany) in CDCl3. Optical rotations were acquired on a Polaar 3005 Polarimeter (Optical Activity, Huntingdon, Great Britain) using a 2.5 cm cell with a Na 589 nm filter and the concentration of samples was denoted as c. Mass spectra data were acquired on a TSQ Quantum Access Max Mass spectrometer (Thermo Fisher Scientific, Waltham, MA, USA). High-resolution mass spectra (HRMS) were acquired on a LTQ Orbitrap Velos spectrometer (Thermo Scientific) and on a Bruker MicrOTOF. FTIR spectra were acquired on an IR Affinity-1 spectrometer (Shimadzu, Thermo Scientific). Organic solvents used were dried by standard methods when necessary. Commercially available reagents were used without further purification. All reactions were monitored by TLC with silica gel coated plates (EMD/Merck KGaA, Darmstadt, Germany), with visualization by UV light and by charring with 0.1% ninhydrin in EtOH. Column chromatography was performed using Merck 60 Å 70–230 mesh silica gel. The optical density was determined using a Multiskan FC spectrophotometer (Thermo Scientific) at a wavelength of 540 nm when using the MTT assay.
(§3) MCF-7 (breast cancer), PC-3 (prostate adenocarcinoma), HCT-116 (colorectal cancer cell), A549 (lung cancer), K562 (chronic myelogenous leukemia), THP-1 (acute monocytic leukemia), and RPMI8226 (multiple myeloma), Jurkat (acute T-cell leukemia), HEF (human embryonic fibroblasts) was purchased from the Russian Academy of Sciences Cells Bank (Institute of Cytology of the Russian Academy of Sciences, Saint Petersburg, Russian Federation). Multiple myeloma cell line NCI-H929 was purchased from ATCC (USA). The MCF-7, A549 and HEF (human embryonic fibroblasts) were cultured in DMEM medium. Other cell lines were cultured in RPMI1640 medium, (PanEco, Russia) supplemented with 10% fetal bovine serum (GE Healthcare LifeSciences, São Paulo, Brazil), and gentamicin at a concentration of 40 μg/mL and cultured at 37 °C in a humidified atmosphere containing 5% CO2. All experiments were performed with cells at passages 3 to 7 in the logarithmic phase of growth.
(§4) Cells were seeded into 96-well plates of 5 × 10^3 for adhesive cultures and 20 × 10^3 for suspension cultures per well in 90 μL and 135 μL of culture medium, respectively. The test substances were dissolved in DMSO to a concentration of 1 × 10^−2 M. For subsequent dilution of the substances, a serum-free culture medium was used as the diluent. Final concentration of DMSO in wells was no more than 1%. […] Substances were added to the cells in 3–4 replicates after 24 h for adhesive cultures and immediately for suspension cultures. 10–15 μL of serum-free medium was added to the control wells with non-exposed cells. Cells were cultured for 72 h at 37 °C in an atmosphere of 5% CO2.

The test system of series [2] is human colorectal cancer HCT-116 cells. Nature of the series: MTT cytotoxicity assay, HCT-116. Type of series: cell-based. Conditions: for IC50: Homo sapiens, MTT, 72 h, n = 3, ± SD, read-out: Adhesive Cell Cultures, IC50 HCT-116. As to the method: as §1, §2, §3, §4
Series [3] concerns human embryonic fibroblasts HEF. Nature of the series: MTT cytotoxicity assay, HEF (control cells). Format: cell-based. The conditions noted are these: Fibroblast, 72 h, n = 3, ± SD, read-out: Adhesive Cell Cultures, IC50 HEF. As to the method: as §1, §2, §3, §4
In series [4] the test system is human acute monocytic leukemia THP-1 cells. In words: MTT cytotoxicity assay, THP-1. Type of series: cell-based. The conditions noted are these: 72 h, n = 3, ± SD, read-out: Suspension Cell Cultures, IC50 THP-1. The protocol: as §1, §2, §3, §4
The test system of series [5] is human acute T-cell leukemia Jurkat cells. Nature of the series: MTT cytotoxicity assay, Jurkat. Format: cell-based. The conditions noted are these: for IC50: Homo sapiens, MTT, 72 h, n = 3, ± SD, read-out: Suspension Cell Cultures, IC50 Jurkat. The protocol: as §1, §2, §3, §4
Series [6] can be described thus: Acute intraperitoneal toxicity study. Type of series: in vivo. Conditions: male, outbred (printed 'outbreed'), mouse, in vivo, ip, mice, single i.p. injection, 14 days. The protocol:
(§5) Six to eight-week-old outbreed male mice were purchased from the Rappolovo Animal Farm of the Russian Academy of Sciences. Animals were group housed in solid bottom polycarbonate cages (3–5 animals/cage) and provided with sterilized pelleted food and pure water ad libitum.
(§6) Thirty mice were randomly assigned to the acute toxicity study. Animals in experimental groups ([…]) received a dose formulation containing compound 6 solution in 5% DMSO at various dosages (8.25, 82.5 and 200 mg/kg) via single i.p. injection. Mice in the control group treated with vehicle (5% DMSO). The location of the i.p. injection was in the lower left abdominal quadrant. […] After treatments, the following parameters and end points were evaluated for 14 days: mortality, clinical signs, body weight, food consumption, locomotion, salivation, diarrhea, and lethargy. The maximum tolerated dose in this study is defined as the highest dose that will be tolerated and not produce major life-threatening toxicity for the study duration. All experimental procedures were performed according to the principles and guidelines for the care and use of laboratory animals. The animals were sacrificed by carbon dioxide asphyxiation and cervical dislocation. All efforts were made to minimize suffering. Post mortem evaluation included gross examination for all animals at terminal necropsy and calculation of organ mass coefficients. No histopathological examinations were performed.

The subject of series [7] is mice. In words: Acute intraperitoneal toxicity study. Type of series: in vivo. As to the method: as §5, §6
The test system of series [8] is human breast cancer MCF-7 cells. In words: MTT cytotoxicity assay, MCF-7. Format: cell-based. Conditions: MCF7, 72 h, n = 3, ± SD, read-out: Adhesive Cell Cultures, IC50 MCF-7. The protocol: as §1, §2, §3, §4
Series [9] deals with human prostate adenocarcinoma PC-3 cells. Nature of the series: MTT cytotoxicity assay, PC-3. Conditions: for IC50: Homo sapiens, MTT, 72 h, n = 3, ± SD, read-out: Adhesive Cell Cultures, IC50 PC-3. Format: cell-based. The protocol: as §1, §2, §3, §4
Series [10] concerns human multiple myeloma RPMI8226 cells. In words: MTT cytotoxicity assay, RPMI8226. Conditions: for IC50: Homo sapiens, RPMI-8226, MTT, 72 h, n = 3, ± SD, read-out: Suspension Cell Cultures, IC50 RPMI8228. Type of series: cell-based. As to the method: as §1, §2, §3, §4
Series [11] relates to human chronic myelogenous leukemia K562 cells. Nature of the series: MTT cytotoxicity assay, K562. Type of series: cell-based. Conditions: for IC50: Homo sapiens, MTT, 72 h, n = 3, ± SD, read-out: Suspension Cell Cultures, IC50 К562. The protocol:
as §1, §2, §3, §4

Series [12] relates to human multiple myeloma NCI-H929 cells. In words: MTT cytotoxicity assay, NCI-H929. Type of series: cell-based. The conditions noted are these: for IC50: Homo sapiens, MTT, 72 h, n = 3, ± SD, read-out: Suspension Cell Cultures, IC50 NCI-Н929. The protocol: as §1, §2, §3, §4
In series [13] the test system is mice. Details: method as in RTECS # KC0190000. Conditions: i.p., ref RTECS # KC0190000; cited from earlier work.

Turning to `C=C1C2=C(C(=O)N1OC)[C@@H](N1CCCC1)[C@@](C)(O)[C@H](CCCCC)O2` [Compound 6, (2S,3R,4R)-3-Hydroxy-6-methoxy-3-methyl-7-methylene-2-pentyl-4-pyrrolidin-1-yl-3,4,6,7-tetrahydro-pyrano[2,3-c]pyrrol-5(2H)-one], the IC50 in series [1] was 10.1 ± 0.5 µM; in series [2] it was 0.47 ± 0.01 µM; in [3] it was 4 ± 0.17 µM; in [4] it was 2.05 ± 0.21 µM; in series [5], 0.55 ± 0.29 µM; in series [8], 3.25 ± 0.64 µM. For the same molecule, the IC50 in [9] was 0.2 ± 0.07 µM; in series [10], 0.63 ± 0.23 µM; in series [11] it was 0.54 ± 0.03 µM; in [12], 0.23 ± 0.02 µM. Besides, the “fold increase in anticancer activity comparative to etoposide” value is 47 fold in series [2]; 1.5 fold in [5]; 13.5 fold in series [9]; 7 fold in series [10] (RPMI8226); 16 fold in series [11]; 4 fold in [12]. Also, the “fold stronger than the reference compound PPA” value in [2] stood at 51 fold; in series [5], 17.5 fold; in [9], 160 fold; in series [10] (RPMI8226), 14.5 fold; in series [11], 37 fold; in series [12], 28 fold. Besides, the median lethal dose (LD50) at 14 days in series [6] (not determined, believed to be more than, read-out: Median lethal dose (LD50)) is over 200 mg/kg. Also, the MTD at 14 days in series [6] (read-out: Maximum tolerated dose) is at least 82.5 mg/kg. In addition, the “toxicity in vivo comparative to etoposide” value in series [7] (mice, i.p.) was “less toxic”. Moreover, in [7] (mouse, in vivo, ip), the “effect on mean body weight or mass coefficients (spleen, liver, heart, kidney, lung, thymus, and adrenal)” value was “No effect”. Also, the “gross abnormalities in the organs tested” value in series [7] (mouse, in vivo, ip) is given as “No gross abnormalities”.
For the molecule `COc1cc([C@@H]2c3cc4c(cc3[C@@H](O[C@@H]3O[C@@H]5CO[C@@H](C)O[C@H]5[C@H](O)[C@H]3O)[C@H]3COC(=O)[C@H]23)OCO4)cc(OC)c1O` [Etoposide, etoposide, reference compound], the IC50 in series [1] was over 100 µM; in [2], 22 ± 1.1 µM; in series [3], over 100 µM; in series [4], 0.83 ± 0.21 µM; in series [5] it was 0.88 ± 0.74 µM; in [8], 9.6 ± 0.27 µM. Also, the IC50 is 2.7 ± 0.05 µM in [9], 4.6 ± 0.28 µM in series [10], 8.47 ± 0.95 µM in series [11] and 0.92 ± 0.03 µM in series [12]. For the same molecule, the “Intraperitoneal LD50” value in series [13] was 64 mg/kg.
